Experimental data from the supplement of paper PMC10307832.

Columns and labels:
Assay in all cases: relative viability (nuclei count vs DMSO), 5 days (fraction); higher = more cells survive
[1] = compound: COC1=CC(c2cc3ccccc3[nH]2)=N/C1=C\c1[nH]c(C)cc1C [Obatoclax] + O=C(c1cc(Cc2n[nH]c(=O)c3ccccc23)ccc1F)N1CCN(C(=O)C2CC2)CC1 [Olaparib] (partner 8 µM)
Procedure, shortened: (§1)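 Relative viability divides the nuclei count in treated wells by that in vehicle wells. Lung cancer cell lines were seeded in 1536-well plates, dosed by pin tool the next day, and fixed and stained after 5 days in one step with final 0.05% Triton X-100, 1% formaldehyde and 1 ug/ml Hoechst. Dosing was a single drug or a fixed anchor-drug dose plus five library-drug doses (not always all listed) in √10 steps, and values are medians of duplicate plates imaged at 4×.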

[2] = compound: CC1=CC(=NN1)NC2=CC(=NC(=N2)/C=C/C3=CC=CC=C3)N4CCN(CC4)C + COc1cc2c(Oc3ccc(NC(=O)C4(C(=O)Nc5ccc(F)cc5)CC4)cc3F)ccnc2cc1OCCCN1CCOCC1 [Foretinib] (partner 0.25 µM)
Procedure, shortened: as §1

[3] = compound: COC1=CC(c2cc3ccccc3[nH]2)=N/C1=C\c1[nH]c(C)cc1C [Obatoclax] + Nc1ncn([C@H]2C[C@H](O)[C@@H](CO)O2)c(=O)n1 [Decitabine] (partner 2 µM)
Procedure, shortened: as §1

[4] = compound: CC1=CC(=NN1)NC2=CC(=NC(=N2)/C=C/C3=CC=CC=C3)N4CCN(CC4)C + CC1(C)CCC(c2ccc(Cl)cc2)=C(CN2CCN(c3ccc(C(=O)NS(=O)(=O)c4ccc(N[C@H](CCN5CCOCC5)CSc5ccccc5)c(S(=O)(=O)C(F)(F)F)c4)cc3)CC2)C1 [Navitoclax] (partner 0.5 µM)
Procedure, shortened: as §1

Cell Line: NCI-H1666
- relative viability ([1]; first compound 0.01 µM): 0.769
- relative viability ([1]; first compound 0.03162 µM): 0.726
- relative viability ([1]; first compound 0.1 µM): 0.766
- relative viability ([1]; first compound 0.3162 µM): 0.691
- relative viability ([1]; first compound 1 µM): 0.585
- relative viability ([2]; first compound 0.08 µM): 1.02
- relative viability ([2]; first compound 0.253 µM): 0.948
- relative viability ([2]; first compound 0.8 µM): 1
- relative viability ([2]; first compound 2.53 µM): 0.739
- relative viability ([2]; first compound 8 µM): 0.33
- relative viability ([3]; first compound 0.01 µM): 0.731
- relative viability ([3]; first compound 0.03162 µM): 0.688
- relative viability ([3]; first compound 0.1 µM): 0.68
- relative viability ([3]; first compound 0.3162 µM): 0.586
- relative viability ([3]; first compound 1 µM): 0.691
- relative viability ([4]; first compound 0.08 µM): 0.951
- relative viability ([4]; first compound 0.253 µM): 0.898
- relative viability ([4]; first compound 0.8 µM): 0.906
- relative viability ([4]; first compound 2.53 µM): 0.64
- relative viability ([4]; first compound 8 µM): 0.222

Cell Line: PC-14
- relative viability ([1]; first compound 0.01 µM): 0.285
- relative viability ([1]; first compound 0.03162 µM): 0.306
- relative viability ([1]; first compound 0.1 µM): 0.14
- relative viability ([1]; first compound 0.3162 µM): 0.0684
- relative viability ([1]; first compound 1 µM): 0.081
- relative viability ([2]; first compound 0.08 µM): 0.974
- relative viability ([2]; first compound 0.253 µM): 1.09
- relative viability ([2]; first compound 0.8 µM): 0.534
- relative viability ([2]; first compound 2.53 µM): 0.869
- relative viability ([2]; first compound 8 µM): 0.398
- relative viability ([3]; first compound 0.01 µM): 0.209
- relative viability ([3]; first compound 0.03162 µM): 0.17
- relative viability ([3]; first compound 0.1 µM): 0.147
- relative viability ([3]; first compound 0.3162 µM): 0.0898
- relative viability ([3]; first compound 1 µM): 0.0842
- relative viability ([4]; first compound 0.08 µM): 0.974
- relative viability ([4]; first compound 0.253 µM): 1.01
- relative viability ([4]; first compound 0.8 µM): 0.928
- relative viability ([4]; first compound 2.53 µM): 0.324
- relative viability ([4]; first compound 8 µM): 0.0445

Cell Line: NCI-H1915
- relative viability ([1]; first compound 0.01 µM): 0.269
- relative viability ([1]; first compound 0.03162 µM): 0.256
- relative viability ([1]; first compound 0.1 µM): 0.252
- relative viability ([1]; first compound 0.3162 µM): 0.257
- relative viability ([1]; first compound 1 µM): 0.247
- relative viability ([2]; first compound 0.08 µM): 1.01
- relative viability ([2]; first compound 0.253 µM): 1.13
- relative viability ([2]; first compound 0.8 µM): 1.06
- relative viability ([2]; first compound 2.53 µM): 0.817
- relative viability ([2]; first compound 8 µM): 0.386
- relative viability ([3]; first compound 0.01 µM): 0.268
- relative viability ([3]; first compound 0.03162 µM): 0.267
- relative viability ([3]; first compound 0.1 µM): 0.24
- relative viability ([3]; first compound 0.3162 µM): 0.256
- relative viability ([3]; first compound 1 µM): 0.272
- relative viability ([4]; first compound 0.08 µM): 0.762
- relative viability ([4]; first compound 0.253 µM): 0.8
- relative viability ([4]; first compound 0.8 µM): 0.779
- relative viability ([4]; first compound 2.53 µM): 0.539
- relative viability ([4]; first compound 8 µM): 0.213

Cell Line: NCI-H2170
- relative viability ([1]; first compound 0.01 µM): 0.574
- relative viability ([1]; first compound 0.03162 µM): 0.607
- relative viability ([1]; first compound 0.1 µM): 0.574
- relative viability ([1]; first compound 0.3162 µM): 0.585
- relative viability ([1]; first compound 1 µM): 0.655
- relative viability ([2]; first compound 0.08 µM): 1.02
- relative viability ([2]; first compound 0.253 µM): 0.981
- relative viability ([2]; first compound 0.8 µM): 0.95
- relative viability ([2]; first compound 2.53 µM): 0.774
- relative viability ([2]; first compound 8 µM): 0.183
- relative viability ([3]; first compound 0.01 µM): 0.47
- relative viability ([3]; first compound 0.03162 µM): 0.393
- relative viability ([3]; first compound 0.1 µM): 0.47
- relative viability ([3]; first compound 0.3162 µM): 0.453
- relative viability ([3]; first compound 1 µM): 0.441
- relative viability ([4]; first compound 0.08 µM): 0.588
- relative viability ([4]; first compound 0.253 µM): 0.574
- relative viability ([4]; first compound 0.8 µM): 0.619
- relative viability ([4]; first compound 2.53 µM): 0.248
- relative viability ([4]; first compound 8 µM): 0.159

Cell Line: HCC-78
- relative viability ([1]; first compound 0.01 µM): 0.836
- relative viability ([1]; first compound 0.03162 µM): 0.952
- relative viability ([1]; first compound 0.1 µM): 1.26
- relative viability ([1]; first compound 0.3162 µM): 0.668
- relative viability ([1]; first compound 1 µM): 0.855
- relative viability ([2]; first compound 0.08 µM): 0.582
- relative viability ([2]; first compound 0.253 µM): 0.666
- relative viability ([2]; first compound 0.8 µM): 0.54
- relative viability ([2]; first compound 2.53 µM): 0.492
- relative viability ([2]; first compound 8 µM): 0.233
- relative viability ([3]; first compound 0.01 µM): 0.617
- relative viability ([3]; first compound 0.03162 µM): 0.511
- relative viability ([3]; first compound 0.1 µM): 0.706
- relative viability ([3]; first compound 0.3162 µM): 0.616
- relative viability ([3]; first compound 1 µM): 0.699
- relative viability ([4]; first compound 0.08 µM): 0.799
- relative viability ([4]; first compound 0.253 µM): 0.918
- relative viability ([4]; first compound 0.8 µM): 0.823
- relative viability ([4]; first compound 2.53 µM): 0.568
- relative viability ([4]; first compound 8 µM): 0.126

Cell Line: PC-3 [JPC-3]
- relative viability ([1]; first compound 0.01 µM): 1.09
- relative viability ([1]; first compound 0.03162 µM): 1.25
- relative viability ([1]; first compound 0.1 µM): 1.02
- relative viability ([1]; first compound 0.3162 µM): 1
- relative viability ([1]; first compound 1 µM): 0.514
- relative viability ([2]; first compound 0.08 µM): 1.01
- relative viability ([2]; first compound 0.253 µM): 1.1
- relative viability ([2]; first compound 0.8 µM): 1.02
- relative viability ([2]; first compound 2.53 µM): 0.87
- relative viability ([2]; first compound 8 µM): 0.493
- relative viability ([3]; first compound 0.01 µM): 0.826
- relative viability ([3]; first compound 0.03162 µM): 0.799
- relative viability ([3]; first compound 0.1 µM): 0.776
- relative viability ([3]; first compound 0.3162 µM): 0.732
- relative viability ([3]; first compound 1 µM): 0.501
- relative viability ([4]; first compound 0.08 µM): 0.769
- relative viability ([4]; first compound 0.253 µM): 0.81
- relative viability ([4]; first compound 0.8 µM): 0.762
- relative viability ([4]; first compound 2.53 µM): 0.62
- relative viability ([4]; first compound 8 µM): 0.389

Cell Line: EKVX
- relative viability ([1]; first compound 0.01 µM): 0.842
- relative viability ([1]; first compound 0.1 µM): 0.966
- relative viability ([1]; first compound 0.3162 µM): 0.888
- relative viability ([1]; first compound 1 µM): 0.648
- relative viability ([2]; first compound 0.08 µM): 0.761
- relative viability ([2]; first compound 0.253 µM): 0.786
- relative viability ([2]; first compound 0.8 µM): 1.14
- relative viability ([2]; first compound 2.53 µM): 0.504
- relative viability ([2]; first compound 8 µM): 0.213
- relative viability ([3]; first compound 0.01 µM): 0.343
- relative viability ([3]; first compound 0.1 µM): 0.313
- relative viability ([3]; first compound 0.3162 µM): 0.368
- relative viability ([3]; first compound 1 µM): 0.324
- relative viability ([4]; first compound 0.08 µM): 0.946
- relative viability ([4]; first compound 0.253 µM): 1.24
- relative viability ([4]; first compound 0.8 µM): 1.03
- relative viability ([4]; first compound 2.53 µM): 0.755
- relative viability ([4]; first compound 8 µM): 0.131

Cell Line: NCI-H460
- relative viability ([1]; first compound 0.01 µM): 0.422
- relative viability ([1]; first compound 0.03162 µM): 0.408
- relative viability ([1]; first compound 0.3162 µM): 0.339
- relative viability ([1]; first compound 1 µM): 0.14
- relative viability ([2]; first compound 0.08 µM): 1
- relative viability ([2]; first compound 0.253 µM): 1.1
- relative viability ([2]; first compound 0.8 µM): 1.04
- relative viability ([2]; first compound 2.53 µM): 0.477
- relative viability ([2]; first compound 8 µM): 0.0228
- relative viability ([3]; first compound 0.01 µM): 0.521
- relative viability ([3]; first compound 0.03162 µM): 0.385
- relative viability ([3]; first compound 0.1 µM): 0.522
- relative viability ([3]; first compound 0.3162 µM): 0.133
- relative viability ([3]; first compound 1 µM): 0.0944
- relative viability ([4]; first compound 0.08 µM): 1.07
- relative viability ([4]; first compound 0.253 µM): 1.58
- relative viability ([4]; first compound 0.8 µM): 0.952
- relative viability ([4]; first compound 2.53 µM): 0.0095
- relative viability ([4]; first compound 8 µM): 0.0091
